Source: patent US8178506B2, “Oligomeric compounds and compositions for use in modulation of small non-coding RNAs” (Regulus Therapeutics Inc., priority 2003, dated 2012)
In the oligonucleotide strings, read from the 5' end, every base follows the letter of its sugar. An asterisk marks phosphorothioate; unmarked linkages are phosphodiester. Other units and linkages are bracketed, terminal groups are in braces. A string of capitals states the bases alone. e = 2'-O-(2-methoxyethyl) (MOE); [5mC] = 5-methylcytosine

How the values were obtained:
[1] = tested on: HuVECs; test: Endothelial tube formation assay in HuVECs; conditions: 75 nM oligomeric compound
[2] = tested on: PPARγ; test: PPARγ mRNA expression in adipocytes (real-time PCR); type: cell-based, human; conditions: for PPAR gamma mRNA: differentiating adipocytes transfected with oligomeric compound; for PPAR gamma (mRNA expression): adipocytes, 250 nM oligomeric compound, day nine post-transfection, relative to control (1.0)
[3] = tested on: Glut4; test: Glut4 mRNA expression in adipocytes (real-time PCR); type: cell-based, human; conditions: for GLUT4 mRNA: differentiating adipocytes transfected with oligomeric compound; for Glut4 (mRNA expression): adipocytes, 250 nM oligomeric compound, day nine post-transfection, relative to control (1.0)
[4] = tested on: aP2; test: aP2 mRNA expression in adipocytes (real-time PCR); type: cell-based, human; conditions: for AP2 mRNA / aP2 mRNA: differentiating adipocytes transfected with oligomeric compound; for AP2 (mRNA expression): adipocytes, 250 nM oligomeric compound, day nine post-transfection, relative to control (1.0); for aP2 mRNA: Table 75
[5] = tested on: HSL; test: HSL mRNA expression in adipocytes (real-time PCR); type: cell-based, human; conditions: for HSL mRNA: differentiating adipocytes transfected with oligomeric compound; for HSL (mRNA expression): adipocytes, 250 nM oligomeric compound, day nine post-transfection, relative to control (1.0)
[6] = tested on: adipocytes; test: Triglyceride accumulation assay in adipocytes; type: cell-based, human
[7] = differentiating adipocytes transfected with oligomeric compound
[8] = adipocytes, 250 nM oligomeric compound, relative to control (1.0), Table 15
[9] = adipocytes, 250 nM oligomeric compound, relative to control (1.0), Table 16
[10] = differentiating adipocytes transfected with oligomeric compound, Table 75

Substance | % Activity Relative to UTC (tube formation) ([1]; Table 56) [%] | PPAR gamma (mRNA expression) ([2]; Table 15) | PPAR gamma (mRNA expression) ([2]; Table 16) | Glut4 (mRNA expression) ([3]; Table 15) | Glut4 (mRNA expression) ([3]; Table 16) | AP2 (mRNA expression) ([4]; Table 15) | AP2 (mRNA expression) ([4]; Table 16) | HSL (mRNA expression) ([5]; Table 15) | HSL (mRNA expression) ([5]; Table 16) | TG (triglyceride accumulation) [6, 8] | TG (triglyceride accumulation) [6, 9] | also measured
327951 (antisense e[5mC]*eA*e[5mC]*eA*eA*eA*e[5mC]*e[5mC]*eA*eT*eT*eA*eT*eG*eT*eG*e[5mC]*eT*eG*e[5mC]*eT*eA) [compound 327951] |  |  |  |  |  |  |  |  |  |  |  | % Activity Relative to UTC (tube formation) ([1]; Table 59): 73.3%; PPAR gamma mRNA [2]: 84 percentage of untreated control (UTC); GLUT4 mRNA [3]: 81 percentage of untreated control (UTC); AP2 mRNA [4]: 91 percentage of untreated control (UTC); HSL mRNA [5]: 100 percentage of untreated control (UTC); TG (triglyceride accumulation) [6, 7]: 76 percentage of untreated control (UTC)
327889 (antisense eG*eT*eG*eG*eT*eA*eA*eT*e[5mC]*e[5mC]*e[5mC]*eT*eG*eG*e[5mC]*eA*eA*eT*eG*eT*eG*eA*eT) [compound 327889] | 50.0 | 0.71 | 0.82 | 0.55 | 0.46 | 0.69 | 0.57 | 0.59 | 0.54 | 0.47 | 0.46 | 
327893 (antisense eA*eA*e[5mC]*e[5mC]*eA*e[5mC]*eA*e[5mC]*eA*eA*e[5mC]*e[5mC]*eT*eA*e[5mC]*eT*eA*e[5mC]*e[5mC]*eT*e[5mC]*eA) [compound 327893] | 100.0 |  | 1.03 |  | 1.47 |  | 0.97 |  | 0.85 |  | 0.95 | 
327933 (antisense eA*eA*eG*eG*eG*eA*eT*eT*e[5mC]*e[5mC]*eT*eG*eG*eG*eA*eA*eA*eA*e[5mC]*eT*eG*eG*eA*e[5mC]) [compound 327933] |  | 1.52 |  | 2.52 |  | 1.46 |  | 1.35 |  | 1.48 |  | % Activity Relative to UTC (tube formation) ([1]; Table 58): 59.3%; PPAR gamma mRNA [2]: 100 percentage of untreated control (UTC); GLUT4 mRNA [3]: 127 percentage of untreated control (UTC); AP2 mRNA [4]: 82 percentage of untreated control (UTC); HSL mRNA [5]: 132 percentage of untreated control (UTC); TG (triglyceride accumulation) [6, 7]: 127 percentage of untreated control (UTC)
327876 (antisense eA*eA*e[5mC]*eA*e[5mC]*eT*eG*eA*eT*eT*eT*e[5mC]*eA*eA*eA*eT*eG*eG*eT*eG*e[5mC]*eT*eA) [compound 327876] | 50.0 | 0.57 |  | 0.36 |  | 0.75 |  | 0.47 |  | 0.47 |  | 
327902 (antisense eG*eG*e[5mC]*eT*eG*eT*e[5mC]*eA*eA*eT*eT*e[5mC]*eA*eT*eA*eG*eG*eT*e[5mC]*eA*eG) [compound 327902] |  |  |  |  |  |  |  |  |  |  |  | % Activity Relative to UTC (tube formation) ([1]; Table 57): 41.4%; PPAR gamma mRNA ([2]; Table 75): 56 percentage of untreated control (UTC); GLUT4 mRNA ([3]; Table 75): 15 percentage of untreated control (UTC); aP2 mRNA [4]: 58 percentage of untreated control (UTC); HSL mRNA ([5]; Table 75): 56 percentage of untreated control (UTC); TG (triglyceride accumulation) [6, 10]: 55 percentage of untreated control (UTC)
327877 (antisense e[5mC]*eG*e[5mC]*e[5mC]*eA*eA*eT*eA*eT*eT*eT*eA*e[5mC]*eG*eT*eG*e[5mC]*eT*eG*e[5mC]*eT*eA) [compound 327877] | 78.6 |  |  |  |  |  |  |  |  |  |  | PPAR gamma mRNA [2]: 85 percentage of untreated control (UTC); GLUT4 mRNA [3]: 119 percentage of untreated control (UTC); AP2 mRNA [4]: 77 percentage of untreated control (UTC); HSL mRNA [5]: 82 percentage of untreated control (UTC); TG (triglyceride accumulation) [6, 7]: 109 percentage of untreated control (UTC)
327892 (antisense eA*e[5mC]*eT*eT*eT*e[5mC]*eG*eG*eT*eT*eA*eT*e[5mC]*eT*eA*eG*e[5mC]*eT*eT*eT*eA) [compound 327892] | 57.1 | 0.32 |  | 0.07 |  | 0.31 |  | 0.25 |  | 0.42 |  | 
327918 (antisense e[5mC]*eT*eA*eG*eT*eA*e[5mC]*eA*eT*e[5mC]*eA*eT*e[5mC]*eT*eA*eT*eA*e[5mC]*eT*eG*eT*eA) [compound 327918] |  |  |  |  |  |  |  |  |  |  |  | % Activity Relative to UTC (tube formation) ([1]; Table 57): 96.6%; PPAR gamma mRNA ([2]; Table 75): 74 percentage of untreated control (UTC); GLUT4 mRNA ([3]; Table 75): 66 percentage of untreated control (UTC); aP2 mRNA [4]: 91 percentage of untreated control (UTC); HSL mRNA ([5]; Table 75): 85 percentage of untreated control (UTC); TG (triglyceride accumulation) [6, 10]: 65 percentage of untreated control (UTC)
327956 (antisense e[5mC]*eA*e[5mC]*eA*eG*eT*eT*eG*e[5mC]*e[5mC]*eA*eG*e[5mC]*eT*eG*eA*eG*eA*eT*eT*eA) [compound 327956] |  |  |  |  |  |  |  |  |  |  |  | % Activity Relative to UTC (tube formation) ([1]; Table 59): 46.7%; PPAR gamma mRNA [2]: 91 percentage of untreated control (UTC); GLUT4 mRNA [3]: 69 percentage of untreated control (UTC); AP2 mRNA [4]: 102 percentage of untreated control (UTC); HSL mRNA [5]: 90 percentage of untreated control (UTC); TG (triglyceride accumulation) [6, 7]: 80 percentage of untreated control (UTC)
327890 (antisense eA*eG*e[5mC]*eA*e[5mC]*eA*eA*eA*e[5mC]*eT*eA*e[5mC]*eT*eA*e[5mC]*e[5mC]*eT*e[5mC]*eA) [compound 327890] | 92.9 | 1.18 | 0.94 | 1.10 | 0.67 | 0.91 | 0.69 | 0.86 | 0.67 | 0.92 | 0.61 | 
327895 (antisense eA*e[5mC]*eA*eA*eA*e[5mC]*eA*e[5mC]*e[5mC]*eA*eT*eT*eG*eT*e[5mC]*eA*e[5mC]*eA*e[5mC]*eT*e[5mC]*e[5mC]*eA) [compound 327895] | 100.0 |  |  |  |  |  |  |  |  |  |  | PPAR gamma mRNA ([2]; Table 75): 86 percentage of untreated control (UTC); GLUT4 mRNA ([3]; Table 75): 76 percentage of untreated control (UTC); aP2 mRNA [4]: 90 percentage of untreated control (UTC); HSL mRNA ([5]; Table 75): 88 percentage of untreated control (UTC); TG (triglyceride accumulation) [6, 10]: 76 percentage of untreated control (UTC)
327922 (antisense eT*e[5mC]*eA*eG*eT*eT*eT*eT*eG*e[5mC]*eA*eT*eG*eG*eA*eT*eT*eT*eG*e[5mC]*eA*e[5mC]*eA) [compound 327922] |  | 1.37 | 0.80 | 1.75 | 0.43 | 0.99 | 0.75 | 0.95 | 0.72 | 1.09 | 0.43 | % Activity Relative to UTC (tube formation) ([1]; Table 57): 89.7%
327886 (antisense e[5mC]*eG*e[5mC]*eG*eT*eA*e[5mC]*e[5mC]*eA*eA*eA*eA*eG*eT*eA*eA*eT*eA*eA*eT*eG) [compound 327886] | 42.9 |  |  |  |  |  |  |  |  |  |  | PPAR gamma mRNA ([2]; Table 75): 25 percentage of untreated control (UTC); GLUT4 mRNA ([3]; Table 75): 13 percentage of untreated control (UTC); aP2 mRNA [4]: 19 percentage of untreated control (UTC); HSL mRNA ([5]; Table 75): 22 percentage of untreated control (UTC); TG (triglyceride accumulation) [6, 10]: 12 percentage of untreated control (UTC)
327925 (antisense eT*eA*eG*e[5mC]*eT*eG*eG*eT*eT*eG*eA*eA*eG*eG*eG*eG*eA*e[5mC]*e[5mC]*eA*eA) [compound 327925] |  | 0.60 | 0.83 | 1.99 | 0.61 | 0.77 | 0.77 | 0.78 | 0.75 | 0.72 | 0.63 | % Activity Relative to UTC (tube formation) ([1]; Table 58): 44.4%
327905 (antisense e[5mC]*eA*eG*eA*e[5mC]*eT*e[5mC]*e[5mC]*eG*eG*eT*eG*eG*eA*eA*eT*eG*eA*eA*eG*eG*eA) [compound 327905] |  | 0.54 | 0.83 | 0.84 | 0.40 | 1.14 | 0.68 | 1.11 | 0.69 | 0.69 | 0.58 | % Activity Relative to UTC (tube formation) ([1]; Table 57): 48.3%
327916 (antisense eT*eG*eG*e[5mC]*eA*eT*eT*e[5mC]*eA*e[5mC]*e[5mC]*eG*e[5mC]*eG*eT*eG*e[5mC]*e[5mC]*eT*eT*eA*eA) [compound 327916] |  |  |  |  |  |  |  |  |  |  |  | % Activity Relative to UTC (tube formation) ([1]; Table 57): 96.6%; PPAR gamma mRNA ([2]; Table 75): 71 percentage of untreated control (UTC); GLUT4 mRNA ([3]; Table 75): 51 percentage of untreated control (UTC); aP2 mRNA [4]: 67 percentage of untreated control (UTC); HSL mRNA ([5]; Table 75): 64 percentage of untreated control (UTC); TG (triglyceride accumulation) [6, 10]: 56 percentage of untreated control (UTC)
